Measurements from paper PMC4376724, “Differential Phenotypic and Functional Profiles of TcCA-2 -Specific Cytotoxic CD8^+ T Cells in the Asymptomatic versus Cardiac Phase in Chagasic Patients” (PLoS ONE, 2015).
Where “and” joins values, the source holds several entries; their conditions need not be identical. Equal values may be shown once.

Legend:
[1] = test system: PBMCs from asymptomatic HLA-A*02:01 Chagas disease patients; experiment: HLA-A*02:01 restriction assay: peptide-pulsed K562-A2 cells as APC, IFN-γ secretion by patient PBMC; format: cell-based, human; details: K562-A2 cells pulsed with 1 mM peptide 1 h, co-cultured 30 h with PBMC of asymptomatic (IND) patients; positive = IFN-γ at least two folds un-stimulated cells
[2] = test system: PBMCs from asymptomatic HLA-A*02:01 Chagas disease patients; experiment: as above; format: cell-based, human; details: range among patients with a positive response; K562-A2 pulsed with 1 mM peptide 1 h, 30 h co-culture; K562 level subtracted
Experimental: (§1) TAP-deficient T2 cells were used for the HLA-A*02:01 binding assays and the K562-A2 cells for the HLA-A*02:01 restriction assay. The cells were cultured in complete RPMI medium supplemented with 10% of inactivated Fetal Calf Serum (iFCS), 2 mM glutamine, and 100 U/ml penicillin. K562-A2 cells, expressing the HLA-A*02:01 molecule were cultured in the presence of […] of G-418, as previously described. The T2 and K562-A2 cells were kindly provided by Dr. Pedro Romero (University of Lausanne) and by Dr Peter Ponsaerts (University of Antwerp, with the permission of Dr. Cedrik Britten from Johanes Gutenberg-University Mainz), respectively.
For the screening of the recognition of TcCA-2 epitopes by Chagas disease patients, 10 HLA-A*02:01 adult patients in the asymptomatic phase of the disease (IND) were enrolled. For cytotoxicity, functional activity determinations and phenotypic characterization another group of 19 HLA-A*02:01 adults Chagas disease patients and 9 healthy donors were analyzed. These patients were at the chronic stage of the disease and were considered to be at the asymptomatic phase (IND, n = 8) if there was no evidence of having cardiac or gastrointestinal disorders. Chronic Chagas cardiomyopathy patients (CCC, n = 11) were stratified into G1 to G3 stages following Kuschnir classification according to clinical criteria and radiological, electrocardiographic and echocardiography analyses. The number of patients was the one recommended by the Hospital Ethical Committee. […] The patients were enrolled in both studies (functional and phenotypic characterization, IND n = 6 and CCC n = 7) when the available number of purified PBMC (limited by the cellular number isolated from each subject) was enough for both analyses. Another four CCC patients had to be enrolled to perform the phenotypic analysis in order to reach statistical significance.
Cytokine secretion (IL-4, IL-10, IL-6, IFN-γ, TNF-α) was determined in the supernatants of PBMC from Chagas disease patients and healthy donors, after in vitro stimulation with 1 μM of each peptide for 30 h at 37°C in RPMI supplemented with 10% iFBS as explained before. The secretion profile was determined by using a bead-based multiplex immunoassay system (Bio-Plex, Bio-Rad), following the manufacturer's instructions. The response was considered positive if an increase in the secretion of cytokines was at least three folds higher than the secretion by un-stimulated cells (basal secretion level) and at least, 4 pg/mL for IL-4, 2 pg/mL for IL-10, 15 pg/mL for IL-6 and 5 pg/mL for IFN-γ and TNF-α. The positive control consisted of 50 ng/mL Phorbol 12 myristate 13-acetate (PMA) and 500 ng/mL ionomycin (Sigma). Cytokine levels were quantified in each sample by using the Bio-Plex Manager software 4.1 (Bio-Rad). […]

HLA-A*02:01 = HLA-A*02:01 (Homo sapiens, UniProt P04439, D140Y/D185E/D98H/E176V/E277Q/G131W/G231S/I119V/I121R/I166T/I218V/L300P/L318F/N151K/N90K/P208A/P217A/Q86G/Q94H/R138H/R169H/T345S); experiment: HLA-A*02:01 binding assay (surface stabilization on TAP-deficient T2 cells); details: different peptide concentrations in duplicate, serum-free RPMI, overnight at room temperature, PE anti-HLA-A2 (BB7.2) flow cytometry, referred to 25 μM HB-ENV335-343 peptide
Experimental: as §1
HLA-A*02:01 surface stabilization test was carried out as described in [42]. Briefly, TAP-deficient T2 cells were loaded with different concentrations of each peptide, in duplicate in serum-free RPMI medium, and incubated overnight at room temperature. Afterwards, the cells were stained with a PE-labeled HLA-A2-specific antibody (BB7.2 clone, BD biosciences) and analyzed by flow cytometry. The high-affinity HLA-A*02:01-binding peptide […] ([…]) was included as internal standard. Affinity data were calculated as the percentage of maximum complex stabilization, as described in [44]. The following equation was used: % of maximal stabilization = 100 x [(mean fluorescence with peptide)–(background mean fluorescence)]/[(mean fluorescence with 25 μM HBENV335-343 peptide)–(background mean fluorescence)]. Background value was obtained with cells incubated in the same conditions without peptide.
The percentage of maximal binding stabilization of these eight TcCA-2 peptides was evaluated using TAP-deficient T2 cells and different concentrations of each peptide. […] The maximal binding affinity is shown for each peptide in Table 1.

Sequence | Chagas disease patient: patients with positive response in relation with the total number of patients per assay [1] | INF-γ secretion range [2] | % maximal stabilization (HLA-A*02:01)
ALQVTNHRYL [TcCA-2_657-666] | Two out of 9 and 2/9 | 6.1 to 6.7 pg/mL | 21.49%
ALRNLRVFL [TcCA-2_607-615] | 3 out of 9 and 3/9 | 6.4 to 15.1 pg/mL | 29.54%
TVFDASRSTV [TcCA-2_442-451] | 2 out of 10 and 2/10 | 5.8 to 6.9 pg/mL | 24.44%
AAAGDKLSL [TcCA-2_273-281] | 1 out of 10 and 1/10 | 8.6 pg/mL | 12.41%
